Laboratory results: PubChem BioAssay AID258 (DTP/NCI, 2004)
Several values for one entry are separate records, joined by “and”; a condition that tells them apart may be missing. Identical values can stand only once. Toxic doses and inconclusive results are not listed.

System: CD2F1 mice, L1210 leukemia sc, survival T/C
Assay: NCI In Vivo Anticancer Drug Screen. Data for tumor model L1210 Leukemia (subcutaneous) in CD2F1 (CDF1) mice
Conditions: endpoint: median survival time, higher = longer survival
Method in brief: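 Transplantable tumor-bearing mice were treated with compound; survival or tumor size measured and expressed as treated-group value (T) divided by vehicle-treated control value (C).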

Compound: S=c1nc[nH]c2nc[nH]c12
- T/C (dose: 5.0 mg/kg/injection, schedule: Q01DX009 (sc), vehicle: saline with Tween-80): 113 % of control
- T/C (dose: 5.0 mg/kg/injection, schedule: Q## X Z (sc), vehicle: other): 111 % of control
- T/C (dose: 8.4 mg/kg/injection, schedule: Q01DX Z (sc), vehicle: methylcellulose (MC)): 100 % of control
- T/C (dose: 14.0 mg/kg/injection, schedule: Q01DX Z (ip), vehicle: other): 100 % of control
- T/C (dose: 14.0 mg/kg/injection, schedule: Q01DX Z (sc), vehicle: methylcellulose (MC)): 100 % of control
- T/C (dose: 14.0 mg/kg/injection, schedule: Q01DX Z (sc), vehicle: other): 100 % of control
- T/C (dose: 14.0 mg/kg/injection, schedule: Q## X Z (sc), vehicle: other): 172 % of control
- T/C (dose: 14.0 mg/kg/injection, schedule: Q#A X Z (sc), vehicle: other): 111 % of control
- T/C (dose: 20.0 mg/kg/injection, schedule: Q01DX009 (sc), vehicle: saline with Tween-80): 167 % of control
- T/C (dose: 23.0 mg/kg/injection, schedule: Q01DX Z (ip), vehicle: other): 100 % of control
- T/C (dose: 23.0 mg/kg/injection, schedule: Q01DX Z (oral), vehicle: other): 110 % of control
- T/C (dose: 23.0 mg/kg/injection, schedule: Q01DX Z (sc), vehicle: methylcellulose (MC)): 109 % of control and 110 % of control
- T/C (dose: 23.0 mg/kg/injection, schedule: Q02DX Z (sc), vehicle: other): 100 % of control
- T/C (dose: 23.0 mg/kg/injection, schedule: Q## X Z (sc), vehicle: other): 161 % of control
- T/C (dose: 23.0 mg/kg/injection, schedule: Q#A X Z (sc), vehicle: other): 105 % of control
- T/C (dose: 25.0 mg/kg/injection, schedule: Q01DX Z (sc), vehicle: other): 112 % of control
- T/C (dose: 39.0 mg/kg/injection, schedule: Q01DX001 (sc), vehicle: other): 100 % of control
- T/C (dose: 39.0 mg/kg/injection, schedule: Q01DX Z (ip), vehicle: other): 100 % of control
- T/C (dose: 39.0 mg/kg/injection, schedule: Q01DX Z (oral), vehicle: other): 110 % of control
- T/C (dose: 39.0 mg/kg/injection, schedule: Q02DX Z (sc), vehicle: other): 111 % of control
- T/C (dose: 39.0 mg/kg/injection, schedule: Q07DX Z (sc), vehicle: other): 111 % of control
- T/C (dose: 39.0 mg/kg/injection, schedule: Q#A X Z (sc), vehicle: other): 166 % of control
- T/C (dose: 40.0 mg/kg/injection, schedule: Q01DX009 (sc), vehicle: saline with Tween-80): 151 % of control
- T/C (dose: 46.8 mg/kg/injection, schedule: Q01DX Z (sc), vehicle: other): 122 % of control
- T/C (dose: 50.0 mg/kg/injection, schedule: Q01DX Z (sc), vehicle: other): 175 % of control
- T/C (dose: 65.0 mg/kg/injection, schedule: Q01DX001 (sc), vehicle: other): 105 % of control
- T/C (dose: 65.0 mg/kg/injection, schedule: Q01DX Z (sc), vehicle: methylcellulose (MC)): 165 % of control
- T/C (dose: 65.0 mg/kg/injection, schedule: Q02DX Z (sc), vehicle: other): 111 % of control
- T/C (dose: 65.0 mg/kg/injection, schedule: Q07DX Z (sc), vehicle: other): 111 % of control
- T/C (dose: 65.0 mg/kg/injection, schedule: Q## X Z (sc), vehicle: other): 111 % of control
- T/C (dose: 65.0 mg/kg/injection, schedule: Q#A X Z (sc), vehicle: other): 177 % of control
- T/C (dose: 78.0 mg/kg/injection, schedule: Q01DX Z (sc), vehicle: other): 194 % of control
- T/C (dose: 80.0 mg/kg/injection, schedule: Q01DX009 (sc), vehicle: saline with Tween-80): 110 % of control
- T/C (dose: 100.0 mg/kg/injection, schedule: Q01DX Z (sc), vehicle: other): 162 % of control
- T/C (dose: 108.0 mg/kg/injection, schedule: Q01DX001 (sc), vehicle: other): 122 % of control
- T/C (dose: 108.0 mg/kg/injection, schedule: Q01DX Z (ip), vehicle: other): 175 % of control
- T/C (dose: 108.0 mg/kg/injection, schedule: Q01DX Z (oral), vehicle: other): 170 % of control
- T/C (dose: 108.0 mg/kg/injection, schedule: Q02DX Z (sc), vehicle: other): 200 % of control
- T/C (dose: 108.0 mg/kg/injection, schedule: Q07DX Z (sc), vehicle: other): 122 % of control
- T/C (dose: 108.0 mg/kg/injection, schedule: Q## X Z (sc), vehicle: other): 111 % of control
- T/C (dose: 130.0 mg/kg/injection, schedule: Q01DX Z (sc), vehicle: other): 177 % of control
- T/C (dose: 160.0 mg/kg/injection, schedule: Q01DX009 (sc), vehicle: saline with Tween-80): 89 % of control
- T/C (dose: 180.0 mg/kg/injection, schedule: Q01DX001 (sc), vehicle: other): 122 % of control
- T/C (dose: 180.0 mg/kg/injection, schedule: Q01DX Z (sc), vehicle: methylcellulose (MC)): 118 % of control
- T/C (dose: 180.0 mg/kg/injection, schedule: Q02DX Z (sc), vehicle: other): 172 % of control
- T/C (dose: 180.0 mg/kg/injection, schedule: Q07DX Z (sc), vehicle: other): 122 % of control
- T/C (dose: 180.0 mg/kg/injection, schedule: Q## X Z (sc), vehicle: other): 122 % of control
- T/C (dose: 216.0 mg/kg/injection, schedule: Q01DX Z (sc), vehicle: other): 166 % of control
- T/C (dose: 300.0 mg/kg/injection, schedule: Q01DX001 (sc), vehicle: other): 111 % of control
- T/C (dose: 300.0 mg/kg/injection, schedule: Q01DX Z (sc), vehicle: other): 150 % of control

Compound: CN(C)c1nc(N(C)C)nc(N(C)C)n1
- T/C (dose: 19.0 mg/kg/injection, schedule: Q01DX009 (ip), vehicle: saline with Tween-80): 97 % of control
- T/C (dose: 20.0 mg/kg/injection, schedule: Q01DX009 (ip), vehicle: saline with Tween-80): 106 % of control
- T/C (dose: 20.0 mg/kg/injection, schedule: Q01DX009 (sc), vehicle: saline): 107 % of control
- T/C (dose: 37.5 mg/kg/injection, schedule: Q01DX009 (ip), vehicle: saline with Tween-80): 91 % of control
- T/C (dose: 40.0 mg/kg/injection, schedule: Q01DX009 (ip), vehicle: saline with Tween-80): 102 % of control
- T/C (dose: 40.0 mg/kg/injection, schedule: Q01DX009 (sc), vehicle: saline): 100 % of control
- T/C (dose: 75.0 mg/kg/injection, schedule: Q01DX009 (ip), vehicle: saline with Tween-80): 104 % of control
- T/C (dose: 80.0 mg/kg/injection, schedule: Q01DX009 (ip), vehicle: saline with Tween-80): 106 % of control
- T/C (dose: 80.0 mg/kg/injection, schedule: Q01DX009 (sc), vehicle: saline): 100 % of control
- T/C (dose: 150.0 mg/kg/injection, schedule: Q01DX009 (ip), vehicle: saline with Tween-80): 91 % of control
- T/C (dose: 160.0 mg/kg/injection, schedule: Q01DX009 (ip), vehicle: saline with Tween-80): 109 % of control and 110 % of control
- T/C (dose: 160.0 mg/kg/injection, schedule: Q01DX009 (sc), vehicle: saline): 113 % of control
- T/C (dose: 240.0 mg/kg/injection, schedule: Q01DX009 (ip), vehicle: saline with Tween-80): 90 % of control

Compound: CC(C)(C)N1CC1CNC(=O)C(=O)NCC1CN1C(C)(C)C (centres undefined)
- T/C (dose: 3.13 mg/kg/injection, schedule: Q01DX009 (ip), vehicle: saline with Tween-80): 107 % of control and 108 % of control
- T/C (dose: 6.25 mg/kg/injection, schedule: Q01DX009 (ip), vehicle: saline with Tween-80): 122 % of control
- T/C (dose: 12.5 mg/kg/injection, schedule: Q01DX009 (ip), vehicle: saline with Tween-80): 157 % of control
- T/C (dose: 25.0 mg/kg/injection, schedule: Q01DX009 (ip), vehicle: saline with Tween-80): 86 % of control

Compound: O=C1c2c(O)ccc(O)c2C(=O)c2c(NCCNCCO)ccc(NCCNCCO)c21
- T/C (dose: 0.5 mg/kg/injection, schedule: Q01DX009 (ip), vehicle: saline with Tween-80): 105 % of control and 114 % of control and 116 % of control
- T/C (dose: 1.0 mg/kg/injection, schedule: Q01DX009 (ip), vehicle: saline with Tween-80): 114 % of control
- T/C (dose: 2.0 mg/kg/injection, schedule: Q01DX009 (ip), vehicle: saline with Tween-80): 168 % of control

Compound: CC[C@](O)(C(=O)O)c1cc2n(c(=O)c1CO)Cc1cc3ccccc3nc1-2
- T/C (dose: 1.33 mg/kg/injection, schedule: Q01DX009 (ip), vehicle: saline): 121 % of control
- T/C (dose: 1.33 mg/kg/injection, schedule: Q01DX009 (sc), vehicle: saline): 122 % of control
- T/C (dose: 2.0 mg/kg/injection, schedule: Q01DX009 (ip), vehicle: saline): 154 % of control
- T/C (dose: 4.0 mg/kg/injection, schedule: Q01DX009 (ip), vehicle: saline): 113 % of control
- T/C (dose: 5.0 mg/kg/injection, schedule: Q01DX009 (sc), vehicle: saline): 101 % of control
- T/C (dose: 8.0 mg/kg/injection, schedule: Q01DX009 (ip), vehicle: saline): 86 % of control
- T/C (dose: 8.0 mg/kg/injection, schedule: Q01DX009 (sc), vehicle: saline): 86 % of control
- T/C (dose: 12.0 mg/kg/injection, schedule: Q01DX009 (sc), vehicle: saline): 115 % of control
- T/C (dose: 16.0 mg/kg/injection, schedule: Q01DX009 (sc), vehicle: saline): 113 % of control
